Assay results from article PMC6522510 (Nature Communications, 2019).

Columns and labels:
Parameters in all cases: species or system AML cell lines (8); Primary HTS, single concentration about 10 uM, Cell Titer Glo viability; log10 luminescence, per cent inhibition relative to cycloheximide control
Conditions in all cases: 72 h, relative to cycloheximide control, log10 luminescence; inhibitor
[1] = tested on: CMK
[2] = tested on: CHRF288-11
[3] = tested on: U937
[4] = tested on: MOLM-13
[5] = tested on: MV4-11
[6] = tested on: ML-2
[7] = tested on: CMS
[8] = tested on: M07e

SMILES	CMK %inh [1] [%]	CHRF288-11 %inh [2] [%]	U937 %inh [3] [%]	MOLM-13 %inh [4] [%]	MV4-11 %inh [5] [%]	ML-2 %inh [6] [%]	CMS %inh [7] [%]	M07e %inh [8] [%]
COC(=O)Nc1nc2ccc(S(=O)(=O)c3ccc(NC(=O)Nc4cc(C(F)(F)F)ccc4F)cc3)cc2[nH]1 [SJ000573094-1, T229/157/1]	2.078	9.928	1.083	1.464	-0.02364	-2.541	3.097	3.593
CN(C)c1cc2c(Nc3ccc4nc(Cc5ccccc5)[nH]c4c3)ncnc2cn1 [SJ000573096-1, R142/81/1]	4.629	-0.8109	-0.02909	19.45	3.394	-0.4937	0.4943	-6.495
Clc1ccc(-c2nn3ncccc3c2-c2ccnc(Nc3ccccc3)n2)cc1 [SJ000573097-1, U17838/189/2]	3.667	6.42	-1.31	0.7466	3.385	-2.244	3.744	-1.226
Cc1ccc(NC(=O)CC2CC2)cc1-c1ccc(C(=O)NCC2CC2)cc1 [SJ000573098-1, R7387/20/3]	4.183	2.428	1.321	0.2753	0.255	-2.089	1.599	-0.8105
CN(c1ccc(NC(=O)Nc2c(Cl)cccc2Cl)cc1)c1ccnc(Nc2cccc(CS(C)(=O)=O)c2)n1 [SJ000573099-1, U17983/31/1]	37.49	15.56	19.94	85.25	78.59	37.92	10.65	50.22
CCc1nn2ncccc2c1-c1ccnc(NC2CC2)n1 [SJ000573100-1, U16767/17/1]	-4.45	0.1094	0.5788	5.368	0.7749	0.1681	3.597	1.664
COc1cc2ncnc(Nc3ccc4c(cnn4Cc4ccccc4)c3)c2cc1OC [SJ000573101-1, R143/104/1]	0.8373	5.092	6.042	25.02	12.83	-2.157	32.19	1.834
CCS(=O)(=O)c1ccc(OC)c(Nc2nccc(N(C)c3ccc4c(C)n[nH]c4c3)n2)c1 [SJ000573103-1, U20513/4/2]	6.86	5.806	1.879	9.892	5.714	-1.801	9.95	2.221
[O-][S+]1CCN(Cc2ccc(-c3ccc4ncnc(Nc5ccc(OCc6ccccc6)c(Cl)c5)c4c3)o2)CC1 [SJ000573105-1, U14859/143/2]	4.729	0.5474	1.842	4.138	5.18	-0.9946	-1.021	-0.2789
CS(=O)(=O)CCNCc1ccc(-c2ccc3ncnc(Nc4ccc(OCc5cccc(C(F)(F)F)c5)cc4)c3c2)o1 [SJ000573107-1, U14801/49/2]	3.779	2.523	-2.16	82.16	64.67	1.894	0.378	-0.9182
CS(=O)(=O)Nc1ccc(-c2cc(-c3ccccc3)cc(C(N)=O)c2N)cc1 [SJ000573108-1, R12070/86/1]	-4.619	2.153	-2.496	-0.8297	0.1875	-0.5203	-2.317	0.06792
N#Cc1ccc(Oc2nccc(-c3c(-c4ccc(F)cc4)ncn3C3CCNCC3)n2)cc1 [SJ000573110-1, JB27026-057C1]	-0.241	0.2466	-2.466	1.125	-1.125	1.756	-2.544	7.948
COc1c(C(N)=O)cc(-c2ccc(Cl)cc2)cc1-c1ccc(S(N)(=O)=O)cc1 [SJ000573112-1, R12706/72/1]	7.525	-3.227	1.708	6.365	-1.028	3.182	5.358	-1.128
CS(=O)(=O)CCNCc1cc(-c2cc3c(Nc4ccc(OCc5cccc(F)c5)c(Cl)c4)ncnc3s2)cs1 [SJ000573113-1, U20258/167/2]	4.188	-4.074	1.681	4.183	1.359	-1.098	1.969	1.088
COc1cccc(/C=N/Nc2ncnc3c2cnn3-c2cccc(OC)c2)c1 [SJ000573114-1, U19125/70/2]	1.014	-4.16	-1.619	0.5296	-0.9072	-2.362	0.5792	-0.7733
COc1cc(Nc2ncc(-c3ccccc3)o2)cc(OC)c1 [SJ000573115-1, U21834/32/1]	3.561	-9.037	0.9564	74.91	75.56	2.252	-1.309	1.992
O=S(=O)(CCOCc1ccc(-c2ccc3ncnc(Nc4ccc(OCc5cccc(F)c5)c(Cl)c4)c3c2)o1)c1ccccc1 [SJ000573116-1, U15872/4/1]	-5.52	-0.6594	-1.869	-1.247	2.149	-0.1863	1.936	-2.095
COc1ccccc1Nc1ncc(-c2ccccc2)o1 [SJ000573117-1, U14961/90/1]	-0.2443	5.085	-2.759	90.67	83.21	0.6262	-1.143	4.937
NC(=O)c1ccc(Oc2nccc(-c3c(-c4ccc(F)cc4)ncn3C3CCNCC3)n2)cc1 [SJ000573120-1, JB27193-061B1]	7.904	0.2701	4.71	6.408	1.936	1.469	-1.264	-0.791
Fc1cccc(COc2ccc(Nc3ncnc4sc(-c5cccs5)cc34)cc2Cl)c1 [SJ000573122-1, U22476/39/1]	1.871	-6.815	3.407	3.265	-2.021	0.7454	-1.772	-0.3704
Fc1ccc(-c2ncn(C3CCNCC3)c2-c2ccnc(Oc3ccc4c(c3)OCO4)n2)cc1 [SJ000573123-1, JB27026-196B1]	13.54	7.293	5.059	2.344	0.1546	3.564	0.7899	3.354
CS(=O)(=O)CCNCc1ccc(-c2ccc3ncnc(Nc4ccc(OCc5ccccc5)c(C(F)(F)F)c4)c3c2)o1 [SJ000573124-1, U14859/90/2]	-0.3954	-4.921	1.669	3.836	-0.8429	3.074	-0.5761	-5.391
